In data set [1] the test system is rats. The conditions noted are these: daily dose of 1,200 mg/Kg for 52 weeks; cited from earlier work.
For data set [2], the system named is model GK rats having Type II diabetes. Put plainly: Glucose tolerance test in model GK rats having Type II diabetes fed coenzyme Q10 feedstuff. The class given is in vivo, rat. The text has this: (§1) The improvement effects of the reduced coenzyme Q10 and the oxidized coenzyme Q10 on the glucose tolerance were examined using model GK rats (5 weeks old, male) having Type II diabetes. The rats were fed ad libitum with a powdered feedstuff containing 0.1 percent by weight of the reduced coenzyme Q10 (containing 2 percent by weight of the oxidized coenzyme Q10) or a feedstuff containing 0.1 percent by weight of the oxidized coenzyme Q10. In order to avoid the reduced coenzyme Q10 in the feedstuff mixture from decreasing due to oxidation, the feedstuff was completely replaced with a new one every two days. The control group was fed with a powdered feedstuff free of coenzyme Q10. The glucose tolerance test was conducted four weeks and six weeks after the feeding of the feedstuff mixture was started (n=4 in each group). In the glucose tolerance test, a 50% glucose solution was orally administered at a dose of 4 ml/kg, and the blood glucose level was measured before the administration and 30 minutes, 60 minutes, 90 minutes, and 120 minutes after the administration. The blood glucose level in blood collected from the tail vein was determined with a simple blood glucose meter.

In data set [3] the test system is GK rats. Put plainly: Blood glycosylated hemoglobin (hemoglobin A1c) level of GK rats fed for 12 weeks. In kind it is in vivo, rat. The conditions noted are these: GK rats fed for 12 weeks with 0.1 wt% in feedstuff.
Text: as §1
The blood glycosylated hemoglobin (hemoglobin Alc) level of GK rats fed for 12 weeks was measured as in EXAMPLE 1. […]

[4] abbreviates: 0.1 wt% in feedstuff, after six weeks of administration.
Where [5] appears, read: after four weeks and six weeks of administration.

As to `COC1=C(OC)C(=O)C(C/C=C(\C)CC/C=C(\C)CC/C=C(\C)CC/C=C(\C)CC/C=C(\C)CC/C=C(\C)CC/C=C(\C)CC/C=C(\C)CC/C=C(\C)CCC=C(C)C)=C(C)C1=O` [coenzyme Q10], the “toxic effects in chronic toxicity test” value in data set [1] was “no toxic effects”.

Turning to `COC1=C(OC)C(=O)C(C/C=C(\C)CC/C=C(\C)CC/C=C(\C)CC/C=C(\C)CC/C=C(\C)CC/C=C(\C)CC/C=C(\C)CC/C=C(\C)CC/C=C(\C)CCC=C(C)C)=C(C)C1=O` [oxidized coenzyme Q10, reference compound], in data set [2] (0.1 wt% in feedstuff, after four weeks of administration, oral glucose load), the “increase in blood glucose level 30 minutes after the glucose load, in comparison with the control group” value is on record as “significantly inhibited”. Besides, in data set [2] (setting [4]), the “glucose tolerance in comparison with that after four weeks” value was “further improvements”. Further, the “blood glucose level from about an hour after the glucose load, in comparison with the control group” value in data set [2] (setting [5]) is reported as “no large difference”. The “Hemoglobin A1c level” value in data set [3] was 4.93 ± 0.42%.

On to `COc1c(O)c(C)c(C/C=C(\C)CC/C=C(\C)CC/C=C(\C)CC/C=C(\C)CC/C=C(\C)CC/C=C(\C)CC/C=C(\C)CC/C=C(\C)CC/C=C(\C)CCC=C(C)C)c(O)c1OC` [reduced coenzyme Q10], for which the “blood glucose level in comparison with the oxidized coenzyme Q10 group” value in data set [2] (0.1 wt% in feedstuff, after four weeks of administration, all measurement times beginning with 30 minutes after the glucose load) is on record as “sharply decreased”. Further, the “glucose tolerance in comparison with that after four weeks” value in data set [2] (setting [4]) is given as “improved to a greater extent”. In data set [2] (0.1 wt% in feedstuff, after six weeks of administration, all measurement points of glucose tolerance test), the blood glucose level was at most 200 mg/dL. For the same molecule, the “increase in blood glucose level after glucose load” value in data set [2] (0.1 wt% in feedstuff, after six weeks of administration, all measurement times) is “strongly inhibited”. Moreover, in data set [2] (setting [5]), the “blood glucose level 30 minutes after the peak, versus control group” value is on record as “significantly lower”. In addition, in data set [3], the “Hemoglobin A1c level” value amounted to 4.17 ± 0.15%.

Source of the values: patent US20050113459A1, “Compositions for diabetes” (priority 2002, published 2005).
